# Measurements taken from patent publication US20200405752A1, “ANTITUMOR AGENT, ANTITUMOR EFFECT ENHANCER, AND ANTITUMOR KIT” (FUJIFILM Corporation, priority 2018, published 2020).
# Experiments:
# [1] = tested on: cholangiocarcinoma cell line HuCC-T1 (spheroid culture); experiment: Cell viability (CellTiter Glo) of HuCC-T1 in spheroid culture in combination with cisplatin; format: cell-based, human; settings: for viability at 0.001 µM / viability at 0.003 µM / viability at 0.01 µM / viability at 0.03 µM / viability at 0.1 µM / viability at 0.3 µM / viability at 1 µM / viability at 3 µM / viability at 10 µM / IC50: Homo sapiens; for viability at 0.001 µM / viability at 0.003 µM / viability at 0.01 µM / viability at 0.03 µM / viability at 0.1 µM / viability at 0.3 µM / viability at 1 µM / viability at 3 µM / viability at 10 µM: HuCCT-1, 72 h, HuCC-T1 spheroid, with cisplatin 10 μmol/L, 3 days; for viability at 0.001 µM: test substance 1.0 nM; for viability at 0.003 µM: test substance 3.0 nM; for viability at 0.01 µM: test substance 10.0 nM; for viability at 0.03 µM: test substance 30.0 nM; for viability at 0.1 µM: test substance 100.0 nM; for viability at 0.3 µM: test substance 300.0 nM; for viability at 1 µM: test substance 1000.0 nM; for viability at 3 µM: test substance 3000.0 nM; for viability at 10 µM: test substance 10000.0 nM; for IC50: HuCCT-1, in combination with cisplatin (10 μmol/L); for IC50 / CI: HuCC-T1 spheroid culture; for CI: combination with cisplatin
# Description: (§1) On the combinational effect of the embodiment of the invention, the results of evaluation using a combination index (CI) which is a quantitative index of the combinational effect are shown. The CI can be calculated by the following equation according to Cancer Research, 2010, Vol. 70, pp. 440 to 446.
# (§2) That is, in a case where the drugs to be used in combination are drug 1 and drug 2, the CI at a certain drug concentration is
# (§3) CI={(cell viability in case of using drug 1 and drug 2 in combination)/100}/{[(cell viability in case of using drug 1)/100]×[(cell viability in case of using drug 2)/100]}
# Evaluation of Antitumor Activity Against Cholangiocarcinoma Cell Line HuCC-T1 by Combined Use of Cisplatin in Spheroid Culture
# (§4) Gemcitabine, cisplatin, and methanesulfonate of Compound A were used as test substances.
# (§5) Gemcitabine hydrochloride (manufactured by Plantex Co., Ltd.) dissolved in dimethyl sulfoxide (DMSO) was used as gemcitabine. Cisplatin (Cat. #039-20091, manufactured by Wako Pure Chemical Industries, Ltd.) dissolved in DMSO was used as cisplatin.
# (§6) The cholangiocarcinoma cell line HuCC-T1 cells were subcultured in RPMI-1640 medium supplemented with 10% serum (Cat. #10437-028, manufactured by Thermo Fisher Scientific Inc.). During this test, all cell cultures were carried out in a CO2 incubator (set to 37° C. and 5% CO2, saturated with water vapor). The culture was diluted with 10% serum-supplemented medium to a cell density of 5000 cells/well/100 μL, and seeded on an Ultra-Low Attachment 96-well plate (Cat. #7007, manufactured by Corning Incorporated). The cells were cultured for 4 days to form spheroids.
# (§7) The methanesulfonate of Compound A and gemcitabine were dissolved in DMSO to prepare 10 mmol/L DMSO solutions thereof. The thus-prepared DMSO solutions were diluted sequentially with DMSO to prepare DMSO solutions having a final treatment concentration of 1000-fold dilution. Cisplatin was dissolved in DMSO to prepare a 100 mmol/L DMSO solution. The thus-prepared DMSO solution of cisplatin was diluted with DMSO to prepare a DMSO solution having a final treatment concentration of 5000-fold dilution. Further, the DMSO solution of cisplatin was diluted with 10% serum-supplemented medium to prepare a cisplatin-containing medium having a final treatment concentration of 10-fold dilution. The DMSO diluted solutions of Compound A and gemcitabine were diluted with the cisplatin-containing medium to prepare treatment liquids having a final treatment concentration of 10-fold dilution. Compound A and gemcitabine were used with a maximum concentration of 10 μmol/L at a common ratio of 1/3 and 9 concentrations in combination with cisplatin (10 μmol/L).
# (§8) 10 μL of Compound A or gemcitabine diluted with the cisplatin-containing medium was added to each well. In addition, a group in which only a solvent containing no drug was added to wells in which cells were seeded (positive control), and a group in which only a solvent containing no drug was added to wells containing only a medium (negative control) were provided. All groups were set to n=3 well.
# (§9) The cells were cultured for 3 days after the addition of the drug, and the cell viability was evaluated using a CellTiter Glo (registered trademark) Reagent (Cat. #G7570, manufactured by Promega Corporation) with the intracellular ATP level as an index. The concentration that inhibits cell viability by 50% (IC50 value) was calculated using XLFit software Ver.3 (registered trademark, manufactured by CTC Laboratory Systems Corporation).
# (§10) The cell viability of each well was determined with the luminescence signal level of the negative control being 0% cell viability and the luminescence signal level of the positive control being 100% cell viability. The average value and standard deviation of the cell viability of each treatment group were calculated to prepare Table 10.
# [2] = tested on: human breast cancer cell line HCC1954 (spheroid culture); experiment: Cell viability (CellTiter Glo) of HCC1954 in spheroid culture in combination with cisplatin; format: cell-based; settings: for CI / IC50: HCC1954 spheroid culture; for CI: combination with cisplatin; for viability at 0.001 µM / viability at 0.003 µM / viability at 0.01 µM / viability at 0.03 µM / viability at 0.1 µM / viability at 0.3 µM / viability at 1 µM / viability at 3 µM / viability at 10 µM / IC50: Homo sapiens; for viability at 0.001 µM / viability at 0.003 µM / viability at 0.01 µM / viability at 0.03 µM / viability at 0.1 µM / viability at 0.3 µM / viability at 1 µM / viability at 3 µM / viability at 10 µM: 72 h, HCC1954 spheroid, with cisplatin 10 μmol/L, 3 days; for viability at 0.001 µM: test substance 1.0 nM; for viability at 0.003 µM: test substance 3.0 nM; for viability at 0.01 µM: test substance 10.0 nM; for viability at 0.03 µM: test substance 30.0 nM; for viability at 0.1 µM: test substance 100.0 nM; for viability at 0.3 µM: test substance 300.0 nM; for viability at 1 µM: test substance 1000.0 nM; for viability at 3 µM: test substance 3000.0 nM; for viability at 10 µM: test substance 10000.0 nM; for IC50: in combination with cisplatin (10 μmol/L)
# Description: as §1, §2, §3
# Evaluation of Antitumor Activity Against Breast Cancer-Derived Cell Line HCC1954 by Combined Use of Cisplatin in Spheroid Culture
# as §4, §5
# as §6, with “human breast cancer” for “cholangiocarcinoma”, “HCC1954” for “HuCC-T1”
# as §7, with “(10 μmol/L, 5” for “(10”
# as §8, §9
# as §10, with “11.” for “10.”
SMILES,viability at 0.001 µM [1] [%],viability at 0.003 µM [1] [%],viability at 0.01 µM [1] [%],viability at 0.03 µM [1] [%],viability at 0.1 µM [1] [%],viability at 0.3 µM [1] [%],viability at 1 µM [1] [%],viability at 3 µM [1] [%],viability at 10 µM [1] [%],IC50 [1] [nM],CI [1],CI [2],viability at 0.001 µM [2] [%],viability at 0.003 µM [2] [%],viability at 0.01 µM [2] [%],viability at 0.03 µM [2] [%],viability at 0.1 µM [2] [%],viability at 0.3 µM [2] [%],viability at 1 µM [2] [%],viability at 3 µM [2] [%],other results
Nc1ccn([C@@H]2O[C@H](CO)[C@@H](O)C2(F)F)c(=O)n1 [Gemcitabine],94,96,94,90,88,84,79,73,50,≥ 10000,0.79,0.60,96,100,101,97,88,73,60,52,viability at 10 µM [2]: 50%; IC50 [2]: ≥ 10000 nM
"Nc1ccn([C@@H]2S[C@H](CO)[C@@H](O)[C@@H]2F)c(=O)n1 [Compound A, 1-(2-deoxy-2-fluoro-4-thio-β-D-arabinofuranosyl)cytosine]",95,93,87,77,58,41,36,35,34,165,0.42,0.03,92,94,75,65,38,15,2,2,viability at 10 µM [2]: 2%; IC50 [2]: 49.4 nM
